Where “and” joins values, the source holds several entries; their conditions need not be identical. Identical values can stand only once. Entries after “also recorded” stand apart in the source; their conditions may differ. Where a SMILES comes first, the peptide text is derived from it. Where no end group is shown, it is not given here. The star is where a group is joined. 5FAM = O=C1OC2(c3ccc(O)cc3Oc3cc(O)ccc32)c2ccc(C(=O)*)cc21
Columns and labels:
[1] = molecular target: T1, complex between ASPP2 Ank-SH3 and Fl-NFκB 303–332 (Homo sapiens, UniProt Q13625); experiment: Fluorescence anisotropy competition: competitor added to complex of Fl-NFκB 303–332 and ASPP2 Ank-SH3; type: binding; conditions: Bcl-2 peptides: 200 µl of 130 µM added to 87 nM Fl-NFκB 303–332 and 2.25 µM ASPP2 Ank-SH3, 20 mM Hepes pH 7.0, IS = 50 mM; p53CD: IS = 150 mM; 10°C
T1 construct: pRSET HLT ASPP2 893–1128 vector; HLT (vector-encoded tag); made in house
T1 sequence (Q13625 893-1128): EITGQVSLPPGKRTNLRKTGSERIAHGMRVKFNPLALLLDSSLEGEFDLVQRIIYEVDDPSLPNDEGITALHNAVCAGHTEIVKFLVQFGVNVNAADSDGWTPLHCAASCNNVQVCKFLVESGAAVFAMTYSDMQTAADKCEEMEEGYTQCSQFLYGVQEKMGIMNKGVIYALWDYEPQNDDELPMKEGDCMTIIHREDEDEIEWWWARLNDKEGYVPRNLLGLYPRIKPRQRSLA
Description: (§1) In the competition experiments, the conditions were as follows: 100–200 µl of competitor peptide or protein were added to a 1200 µl mixture of 83 nM Fl-ASPP2 722–737 and 8.3 µM ASPP2 Ank-SH3 at 20 mM Hepes pH 7.0, IS = 50 mM, 5 mM βME; 200 µl of 130 µM of competitor peptide were added to a 1150-µl mixture of 87 nM Fl peptide ASPP2 1089–1097 and 6.5 µM p53CD at 50 mM Hepes pH 7.0, IS = 20 mM, 10 mM βME; 200 µl of 130 µM of Bcl-2 103–120 or Bcl-2 7–24 were added to a 1100 µl mixture of 87 nM Fl-NFκB 303–332 and 2.25 µM ASPP2 Ank-SH3 or to 1150 µl mixture of 87 nM Fl-ASPP2 722–737 and 4.5 µM ASPP2 Ank-SH3 at 20 mM Hepes pH 7.0, IS = 50 mM, 5 mM βME. The K d of the competitor was calculated as described.

[2] = test system: complex between p53CD and Fl-ASPP2 1089–1097; experiment: Fluorescence anisotropy competition: competitor added to complex of Fl-ASPP2 1089–1097 and p53CD; type: binding; conditions: 200 µl of 130 µM competitor added to 87 nM Fl-ASPP2 1089–1097 and 6.5 µM p53CD, 50 mM Hepes pH 7.0, IS = 20 mM, 10 mM βME, 10°C
Description: as §1

[3] = molecular target: T2, complex between ASPP2 Ank-SH3 and Fl-ASPP2 722–737 (Homo sapiens, UniProt Q13625); experiment: Fluorescence anisotropy competition: competitor added to complex of Fl-ASPP2 722–737 and ASPP2 Ank-SH3; type: binding; conditions: 83–87 nM Fl-ASPP2 722–737, 8.3 µM (p53CD) or 4.5 µM (Bcl-2 peptides) ASPP2 Ank-SH3, 20 mM Hepes pH 7.0, IS = 50 mM, 5 mM βME, 10°C
T2 construct: pRSET HLT ASPP2 893–1128 vector; HLT (vector-encoded tag); made in house
T2 sequence (Q13625 893-1128): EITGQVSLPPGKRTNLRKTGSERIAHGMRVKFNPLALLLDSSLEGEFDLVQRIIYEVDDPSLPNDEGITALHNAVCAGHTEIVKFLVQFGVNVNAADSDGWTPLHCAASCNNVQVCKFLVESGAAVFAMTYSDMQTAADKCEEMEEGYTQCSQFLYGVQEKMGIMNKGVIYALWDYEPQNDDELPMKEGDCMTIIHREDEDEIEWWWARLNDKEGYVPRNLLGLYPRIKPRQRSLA
Description: as §1

[4] = molecular target: T2, complex between ASPP2 Ank-SH3 and Fl-ASPP2 722–737; conditions: previously shown; cited from earlier work
Text: Fl-NFκB 303–332 was previously shown to bind ASPP2 Ank-SH3 and compete with the Pro peptide ASPP2 722–737 [13]. We thus assumed that NFκB 303–332 also binds the SH3 domain of ASPP2, similar to p53CD and the ASPP2 Pro peptide. […] The Bcl-2 BH4 peptide (residues 7–24) binds the RT loop of ASPP2 in different residues than the p53 loop3 [14], [22]. […] However, p53CD displaced Fl-NFκB 303–332 from its complex with ASPP2 Ank-SH3. ...

[5] = test system: complex between Fl-ASPP2 1089–1097 and ASPP2 722–737; experiment: Fluorescence anisotropy competition: p53CD added to complex of Fl-ASPP2 1089–1097 and ASPP2 722–737; type: binding; conditions: Figure 2A
Description: A major p53-interacting site in ASPP2 SH3 is situated in the n-src loop between residues 1089–1097 [14], [27] (Figure 1A, B). […] The ASPP2 Pro peptide (residues 722–737) was titrated into the fluorescein-labeled (Fl) ASPP2 n-src peptide (residues 1089–1097). […] In the opposite experiment p53CD was added to a pre-formed complex between the ASPP2 Pro peptide and the Fl-ASPP2 n-src peptide (Figure 2A).

[6] = test system: R175H and R273H mutant p53; conditions: cited from earlier work
Text: (§2) It is possible that the peptide inhibits the intramolecular interaction in ASPP2 and thus activates the p53-ASPP2 interaction that ...

[7] = test system: HCT116 p53−/− cells; conditions: cited from earlier work
Text: as §2

[8] = test system: colorectal carcinoma HCT116 cells; conditions: cited from earlier work
Text: as §2

[9] = test system: p53CD mutant I195T; conditions: to levels similar to wild-type; cited from earlier work
Text: (§3) The TP53 gene encoding p53 is frequently mutated in human cancers and most of these reported mutations are in the DNA-binding core domain of the protein (p53CD), [25]. Some of these mutations lower the thermodynamic stability of p53, resulting in its unfolding and inactivation.

[10] = test system: p53CD; conditions: 37°C, concentration-dependent; cited from earlier work
Text: as §3

[11] = test system: p53 R249S mutant; conditions: back towards wild-type-like structure; cited from earlier work
Text: as §3

[12] = molecular target: T3, ASPP2 n-src peptide (residues 1089–1097) (Homo sapiens, UniProt Q13625); experiment: Fluorescence anisotropy titration into Fl-ASPP2 n-src peptide; type: binding; conditions: 20 mM Hepes pH 7.0, IS 50 mM, 5 mM βME, data not shown
T3 construct: fluorescein-labeled (Fl) ASPP2 n-src peptide (residues 1089–1097); made in house; host or cells: chemical peptide synthesis

[13] = molecular target: Bcl-2 peptide 7-24 (Homo sapiens) (UniProt P10415); experiment: fluorescence anisotropy; conditions: cited from earlier work
[14] = molecular target: T4, ASPP2 Ank-SH3 (ASPP2 893–1128) (UniProt Q13625 893-1128); experiment: fluorescence polarisation; fluorescence anisotropy; ASPP2 Ank-SH3 titrated into 100 nM fluorescein-labelled peptide; 10°C; 20 mM Hepes pH 7.0, 5 mM βME; ionic strength 50 mM (told for the competitions done on these complexes); 1:1 binding model; conditions: both partners purified
T4 construct: ASPP2, four ankyrin repeats and SH3 domain, residues 893-1128
T4 sequence (looked up): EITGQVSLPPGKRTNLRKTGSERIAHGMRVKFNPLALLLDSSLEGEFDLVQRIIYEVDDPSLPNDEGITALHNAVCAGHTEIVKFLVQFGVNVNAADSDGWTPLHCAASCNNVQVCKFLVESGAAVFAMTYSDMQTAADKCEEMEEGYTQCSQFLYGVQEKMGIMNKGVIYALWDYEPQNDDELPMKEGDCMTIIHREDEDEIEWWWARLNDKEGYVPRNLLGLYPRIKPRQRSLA

[15] = molecular target: T4, ASPP2 Ank-SH3 (ASPP2 893–1128); experiment: fluorescence polarisation; fluorescence anisotropy; ASPP2 Ank-SH3 titrated into Fl-NFκB 303–332; 10°C; 20 mM Hepes pH 7.0, 5 mM βME; ionic strength 150 mM (told for the competition done on this complex); conditions: both partners purified
[16] = molecular target: T5, Fl-ASPP2 1089–1097 (fluorescein-labelled ASPP2 n-src loop peptide); experiment: fluorescence polarisation; fluorescence anisotropy; p53CD or ASPP2 722–737 titrated into 100 nM Fl-ASPP2 1089–1097 in the cuvette; 10°C; 50 mM Hepes pH 7.0, 10 mM NaCl, 10 mM βME; 1:1 binding model; conditions: both partners purified
T5 construct: ASPP2 n-src loop of the SH3 domain, residues 1089-1097; also called Fl-ASPP2 n-src peptide; Fl-n-src peptide; source: synthetic peptide
T5 peptide: fluorescein-REDEDEIEW

## YDNREIVMKYIHYKLSQR [Bcl-2 7–24, Bcl2 BH4 derived peptide, residues 7–24]
[1]
  Displacement of Fl-NFκB 303–332 from its complex with ASPP2 Ank-SH3: did not displace; also recorded: did not compete
[2]
  Displacement of p53CD from its complex with Fl-ASPP2 n-src peptide 1089–1097 by non-labeled peptide: did not compete
[3]
  Displacement of Fl-ASPP2 722–737 from its complex with ASPP2 Ank-SH3: did not displace; also recorded: did not compete

## CC[C@H](C)[C@H](NC(=O)[C@H](CCCNC(=N)N)NC(=O)[C@H](CCCNC(=N)N)NC(=O)[C@@H]1CCCN1C(=O)[C@@H]1CCCN1C(=O)[C@@H]1CCCN1C(=O)[C@H](CCCNC(=N)N)NC(=O)[C@@H]1CCCN1C(=O)[C@H](CC(=O)O)NC(=O)[C@@H](NC(=O)[C@@H]1CCCN1C(=O)CNC(=O)[C@H](CO)NC(=O)[C@H](Cc1ccccc1)NC(=O)[C@@H]1CCCN1C(=O)[C@H](CO)NC(=O)[C@H](CCCCN)NC(=O)[C@H](CCCCN)NC(=O)[C@H](CCSC)NC(=O)[C@@H](NC(=O)[C@H](CO)NC(=O)[C@H](CCCCN)NC(=O)[C@H](Cc1ccccc1)NC(=O)[C@@H](NC(=O)[C@H](CCC(=O)O)NC(=O)[C@H](Cc1ccc(O)cc1)NC(=O)[C@@H](NC(=O)[C@H](CCCNC(=N)N)NC(=O)[C@H](CCCCN)NC(=O)c1ccc2c(c1)C(=O)OC21c2ccc(O)cc2Oc2cc(O)ccc21)[C@@H](C)O)[C@@H](C)O)[C@@H](C)CC)[C@@H](C)O)C(=O)N[C@@H](C)C(N)=O [Fl-NFκB 303–332] (5FAM-KRTYETFKSIMKKSPFSGPTDPRPPPRRIA-NH2)
[4]
  Competition of NFκB 303–332 with Pro peptide ASPP2 722–737 for ASPP2 Ank-SH3: compete

## p53CD: recombinant p53 DNA-binding core domain, residues 94–312, expressed in E. coli
[1]
  Displacement of Fl-NFκB 303–332 from its complex with ASPP2 Ank-SH3: displaced
[5]
  Anisotropy change on adding p53CD to pre-formed complex of ASPP2 Pro peptide and Fl-ASPP2 n-src peptide: the final anisotropy level increased
[3]
  Displacement of Fl-ASPP2 722–737 from its complex with ASPP2 Ank-SH3: displaced

## NFκB 21–50: unlabeled peptide derived from the ASPP2-binding sites in NFκB (VEIIEQPKQRGMRFRYKCEGRSAGSIPGER)
[2]
  Displacement of p53CD from its complex with Fl-ASPP2 n-src peptide 1089–1097 by non-labeled peptide: did not compete

## REDEDEIEW [ASPP2 1089–1097, nine-residue peptide derived from ASPP2 n-src loop (residues 1089–1097), also termed CDB3]
[6]
  Conformation of R175H and R273H mutant p53 in cells: restored the wild-type conformation
[7]
  Sensitization to apoptosis induced by γ-irradiation: not
[8]
  Sensitization to apoptosis induced by γ-irradiation: sensitize
[9]
  Specific DNA binding activity of p53CD mutant I195T: restored the specific DNA binding activity
[10]
  Unfolding of p53CD: slowed down the unfolding
[11]
  Structural effects of mutation in p53 R249S: rescued the structural effects of mutation

## KRTYETFKSIMKKSPFSGPTDPRPPPRRIA [NFκB 303–332]
[2]
  Displacement of p53CD from its complex with Fl-ASPP2 n-src peptide 1089–1097 by non-labeled peptide: did not compete
[12]
  Binding of NFκB 303–332 to the n-src loop peptide: did not bind
[4]
  Competition of NFκB 303–332 with Pro peptide ASPP2 722–737 for ASPP2 Ank-SH3: competed

## RRYRRDFAEMSSQLHLTP [Bcl-2 103–120]
[1]
  Displacement of Fl-NFκB 303–332 from its complex with ASPP2 Ank-SH3: did not displace; also recorded: did not compete
[2]
  Displacement of p53CD from its complex with Fl-ASPP2 n-src peptide 1089–1097 by non-labeled peptide: did not compete
[3]
  Displacement of Fl-ASPP2 722–737 from its complex with ASPP2 Ank-SH3: did not displace; also recorded: did not compete

## ASPP2 Ank-SH3 Ank-SH3 (from UniProt Q13625)
[13]
  Kd: 4700 nM

B1: Fl-ASPP2 722–737 (fluorescein-labelled ASPP2 Pro peptide) (peptide)
peptide: fluorescein-WRKKLSNAPRPLKKRSS
notes: Trp added at the N terminus of the peptide for UV spectroscopy; also called Fl-ASPP2 Pro peptide; source: synthetic peptide
[14]
  Kd: 680 nM and 820 nM

B2: Fl-NFκB 303–332 (fluorescein-labelled NFκB p65 peptide) (peptide)
peptide: fluorescein-KRTYETFKSIMKKSPFSGPTDPRPPPRRIA
notes: also called NFκB peptide; source: synthetic peptide
[15]
  Kd: 470 ± 20 nM
[14]
  Kd: 130 ± 10 nM

B3: ASPP2 722–737 (ASPP2 Pro peptide, non-labelled) (peptide)
peptide: WRKKLSNAPRPLKKRSS
notes: Trp added at the N terminus of the peptide for UV spectroscopy; A natural stretch with one added N-terminal Trp; source: synthetic peptide
[16]
  Kd: 500 ± 30 nM

Reference: PMC3589414, “Regulation of ASPP2 Interaction with p53 Core Domain by an Intramolecular Autoinhibitory Mechanism” (PLoS ONE, 2013)
